Data reported in patent publication US4990508A, “Pyridone carboxylic acid derivatives and salts thereof, process for producing the same and antibacterial agents comprising the same” (Toyama Chemical Co., Ltd., priority 1988, dated 1991).
In brackets after ≈: the same amount, converted by molar mass. Where a name gives a salt, the structure may show the parent alone. Read-outs that look alike come from different tables or passages of the source.

Columns and labels:
[1] = system: C. freundii N-7; test: MIC, agar dilution, standard method of Japan Society of Chemotherapy; type: cell-based; details: Citrobacter freundii
Experimental: (§1) According to the standard method of Japan Society of Chemotherapy [CHEMOTHERAPY, 29 (1), 76-79 (1981)], a bacteria solution obtained by culturing in Heart Infusion broth (manufactured by Eiken Kagaku) at 37° C. for 20 hours was inoculated onto a Heart Infusion agar containing a drug and cultured at 37° C. for 20 hours, after which the growth of the bacteria was observed, to determine the minimum concentration at which the growth of the bacteria was inhibited as MIC (μg/ml). The amount of the inoculated bacteria was 10^4 cells/plate (10^6 cells/ml).

[2] = system: E. coli NIHJ; test: as above; type: cell-based; details: Escherichia coli, Heart Infusion agar, 37° C., 20 hours, 10^4 cells/plate (10^6 cells/ml)
Experimental: as §1

[3] = system: E. coli TK-111; test: as above; type: cell-based; details: Escherichia coli, TK111, Heart Infusion agar, 37° C., 20 hours, 10^4 cells/plate (10^6 cells/ml)
Experimental: as §1

[4] = system: M. morganii T-216; test: as above; type: cell-based; details: Morganella morganii, T216, Heart Infusion agar, 37° C., 20 hours, 10^4 cells/plate (10^6 cells/ml)
Experimental: as §1

[5] = system: P. mirabilis T-111; test: as above; type: cell-based; details: Proteus mirabilis, T111, Heart Infusion agar, 37° C., 20 hours, 10^4 cells/plate (10^6 cells/ml)
Experimental: as §1

[6] = system: S. marcescens W-134; test: as above; type: cell-based; details: Serratia marcescens, W134, Heart Infusion agar, 37° C., 20 hours, 10^4 cells/plate (10^6 cells/ml)
Experimental: as §1

[7] = system: K. pneumoniae Y-4*; test: as above; type: cell-based; details: Klebsiella pneumoniae
Experimental: as §1
(§2) The asterisk in Table 1 means β-Lactamase-producing bacteria.

[8] = system: P. aeruginosa GN-918*; test: as above; type: cell-based; details: Pseudomonas aeruginosa
Experimental: as §1, §2

[9] = Acute toxicity, intravenous, mice; details: mouse, in vivo, ICR strain male mice, 22±1 g, in 0.1N aqueous sodium hydroxide, read-out: 50% lethal dosage (LD50)
Experimental: A test compound was intravenously administered to a group of three ICR strain male mice each weighing 22±1 g to investigate the acute toxicity.
The test compound was dissolved in a 0.1N aqueous sodium hydroxide solution, and the resulting solution was applied.

[10] = N7, C. freundii N-7, Heart Infusion agar, 37° C., 20 hours, 10^4 cells/plate (10^6 cells/ml), read-out: MIC
[11] = GN918, P. aeruginosa GN-918, β-Lactamase-producing, Heart Infusion agar, 37° C., 20 hours, 10^4 cells/plate (10^6 cells/ml), read-out: MIC
[12] = K. pneumoniae Y-4, β-Lactamase-producing, Heart Infusion agar, 37° C., 20 hours, 10^4 cells/plate (10^6 cells/ml), read-out: MIC

| MIC [7, 12] [µg/mL] | Structure (SMILES) | MIC [1, 10] [µg/mL] | MIC [2] [µg/mL] | MIC [3] [µg/mL] | MIC [4] [µg/mL] | MIC [5] [µg/mL] | MIC [6] [µg/mL] | MIC ([7]; 20 h) [µg/mL] | MIC ([8]; GN918, 20 h) [µg/mL] | MIC ([1]; N7, 20 h) [µg/mL] | MIC [8, 11] [µg/mL] | LD50 [9] [mg/kg] |
| --- | --- | --- | --- | --- | --- | --- | --- | --- | --- | --- | --- | --- |
| – | NC1(c2c(F)cc3c(=O)c(C(=O)O)cn4c3c2OCC42CC2)CC1 [Test Compound 9, 10'-(1-Aminocyclopropyl)-9'-fluoro-7+-oxospiro{cyclopropane-1,3'(2'H)-[7H]-pyrido[1,2,3-de][1,4]benzoxazine}-6'-carboxylic acid hydrochloride] | 0.2 | 0.1 | ≤ 0.05 | 0.1 | 0.39 | 0.2 | 0.39 | 0.39 | – | – | – |
| – | CC1COc2c(N3CCN(C)CC3)c(F)cc3c(=O)c(C(=O)O)cn1c23 (racemic) [Control compd., (±)9-Fluoro-2,3-dihydro-3-methyl-10-(4-methyl-1-piperazinyl)-7-oxo-7H-pyrido[1,2,3-de][1,4]benzoxazine-6carboxylic acid, reference compound] | – | ≤ 0.05 | ≤ 0.05 | 0.1 (≈ 0.277 µM) | 0.39 (≈ 1.08 µM) | 0.2 (≈ 0.553 µM) | 0.39 (≈ 1.08 µM) | – | 0.39 (≈ 1.08 µM) | 3.13 (≈ 8.66 µM) | – |
| 0.2 | CC1COc2c(C3(N)CC3)c(F)cc3c(=O)c(C(=O)O)cn1c23.Cl (stereo not shown) [Test Compound 1, 10-(1-Aminocyclopropyl)-9-fluoro-3-methyl-7-oxo-2,3-dihydro-7H-pyrido[1,2,3-de][1,4] benzoxazine-6carboxylic acid hydrochloride] | ≤ 0.05 | ≤ 0.05 | ≤ 0.05 | ≤ 0.05 | 0.1 | 0.1 | – | – | – | 0.2 | – |
| 0.2 | CC[C@H]1COc2c(C3(N)CC3)c(F)cc3c(=O)c(C(=O)O)cn1c23.Cl [Test Compound 7, (S)-10-(1-aminocyclopropyl)-3-ethyl-9-fluoro-7-oxo-2,3-dihydro-7H-pyrido[1,2,3-de][1,4]benzoxazine-6carboxylic acid hydrochloride] | 0.1 | ≤ 0.05 | ≤ 0.05 | ≤ 0.05 | 0.2 | 0.1 | – | – | – | 0.2 | – |
| 0.1 | CNC1(c2c(F)cc3c(=O)c(C(=O)O)cn4c3c2OC[C@@H]4C)CC1.Cl [Test Compound 11, (S)-10-[1-(N-methylamino)cyclopropyl]-9-fluoro-3-methyl-7-oxo-2,3-dihydro-7H-pyrido[1,2,3-de][1,4]-benzoxazine-6-carboxylic acid hydrochloride] | 0.1 | ≤ 0.05 | ≤ 0.05 | ≤ 0.05 | 0.1 | 0.1 | – | – | – | 0.2 | – |
| – | CC1COc2c(C3(N)CC3)c(F)c(O)c3c(=O)c(C(=O)O)cn1c23.Cl (stereo not shown) [Test Compound 4, 10-(1-Aminocyclopropyl)-9-fluoro-8-hydroxy-3-methyl-7-oxo-2,3-dihydro-7H-pyrido[1,2,3-de][1,4]-benzoxazine-6-carboxylic acid hydrochloride] | – | ≤ 0.05 | ≤ 0.05 | ≤ 0.05 | 0.2 | 0.2 | 0.39 | – | 0.39 | 0.78 | – |
| – | CC1COc2c(C3(N)CC3)c(F)c(N)c3c(=O)c(C(=O)O)cn1c23.Cl (stereo not shown) [Test Compound 2, 8-Amino-10-(1-aminocyclopropyl)-9-fluoro-3-methyl-7-oxo-2,3-dihydro-7H-pyrido[1,2,3-de][1,4]-benzoxazine-6-carboxylic acid hydrochloride] | 0.1 | ≤ 0.05 | ≤ 0.05 | 0.1 | 0.39 | 0.2 | 0.39 | – | – | 0.78 | – |
| 0.2 | Cl.NC1(c2c(F)cc3c(=O)c(C(=O)O)cn4c3c2OCC4CF)CC1 (stereo not shown) [Test Compound 6, 10-(1-Aminocyclopropyl)-9-fluoro-3-fluoromethyl-7-oxo-2,3-dihydro-7H-pyrido[1,2,3-de][1,4]benzoxazine-6-carboxylic acid hydrochloride] | 0.1 | ≤ 0.05 | ≤ 0.05 | ≤ 0.05 | 0.1 | 0.1 | – | – | – | 0.2 | – |
| 0.2 | CC1CC1(N)c1c(F)cc2c(=O)c(C(=O)O)cn3c2c1OC[C@@H]3C.Cl (stereo partly drawn) [Test Compound 10, (S)-10-(1-amino-2-methylcyclopropyl)-9-fluoro-3-methyl-7-oxo-2,3-dihydro-7H-pyrido[1,2,3-de][1,4]-benzoxazine-6-carboxylic acid hydrochloride] | ≤ 0.05 | ≤ 0.05 | ≤ 0.05 | ≤ 0.05 | 0.2 | 0.1 | – | – | – | 0.2 | – |
| – | CC1COc2c(C3(N)CC3)c(F)c(F)c3c(=O)c(C(=O)O)cn1c23.Cl (stereo not shown) [Test Compound 3, 10-(1-Aminocyclopropyl)-8,9-difluoro-3-methyl-7-oxo-2,3-dihydro-7H-pyrido[1,2,3-de][1,4]benzoxazine-6-carboxylic acid hydrochloride] | 0.2 | ≤ 0.05 | ≤ 0.05 | ≤ 0.05 | 0.2 | 0.2 | 0.39 | – | – | 0.78 | – |

| Structure (SMILES) | MIC [7, 12] [µg/mL] | MIC [1, 10] [µg/mL] | MIC [2] [µg/mL] | MIC [3] [µg/mL] | MIC [4] [µg/mL] | MIC [5] [µg/mL] | MIC [6] [µg/mL] | MIC ([7]; 20 h) [µg/mL] | MIC ([8]; GN918, 20 h) [µg/mL] | MIC ([1]; N7, 20 h) [µg/mL] | MIC [8, 11] [µg/mL] | LD50 [9] [mg/kg] |
| --- | --- | --- | --- | --- | --- | --- | --- | --- | --- | --- | --- | --- |
| C[C@H]1COc2c(C3(N)CC3)c(F)cc3c(=O)c(C(=O)O)cn1c23.Cl [Test Compound 5, (S)-10-(1-aminocyclopropyl)-9-fluoro-3-methyl-7-oxo-2,3-dihydro-7H-pyrido[1,2,3-de][1,4]benzoxazine-6-carboxylic acid hydrochloride] | ≤ 0.05 | ≤ 0.05 | ≤ 0.05 | ≤ 0.05 | ≤ 0.05 | ≤ 0.05 | ≤ 0.05 | – | – | – | 0.1 | > 1000 |
| Br.C=C1COc2c(C3(N)CC3)c(F)cc3c(=O)c(C(=O)O)cn1c23 [Test Compound 8, 10-(1-Aminocyclopropyl)-9-fluoro-3-methylene-7-oxo-2,3-dihydro-7H-pyrido[1,2,3-de][1,4]benzoxazine-6-carboxylic acid hydrobromide] | 0.2 | 0.1 | 0.1 | ≤ 0.05 | 0.1 | 0.39 | 0.2 | – | 0.39 | – | – | – |
